The values that follow come from ChEMBL document CHEMBL4043168, “The design and SAR of a novel series of 2-aminopyridine based LRRK2 inhibitors” (Bioorg Med Chem Lett, 2017).

The structures appear in SMILES notation. pIC50: −log10 of the molar value. ≈ marks a conversion by molar mass, not a printed value.

In series [1] the target is T1, Leucine-rich repeat serine/threonine-protein kinase 2 (Homo sapiens, UniProt Q5S007). The series can be described thus: Inhibition of recombinant human wild type GST-tagged LRRK2 (970 to 2527 residues) at 200 uM preincubated for 30 mins followed by fluorescein-LRRKtide substrate addition after 2 hrs by TR-FRET assay relative to control.
The test system of series [2] is Leucine-rich repeat serine/threonine-protein kinase 2 (Homo sapiens), Q5S007 [G2019S]. The settings on record: at 200 µM.
Description: Inhibition of recombinant human LRRK2 (970 to 2527 residues) G2019S mutant expressed in baculovirus at 200 uM preincubated for 30 mins followed by fluorescein-LRRKtide substrate addition after 2 hrs by TR-FRET assay
Series [3] addresses Leucine-rich repeat serine/threonine-protein kinase 2 (Homo sapiens, UniProt Q5S007, G2019S).
Description: Inhibition of recombinant human LRRK2 (970 to 2527 residues) G2019S mutant expressed in baculovirus preincubated for 30 mins followed by fluorescein-LRRKtide substrate addition after 2 hrs by TR-FRET assay
Series [4] addresses T1, Leucine-rich repeat serine/threonine-protein kinase 2. The series can be described thus: Inhibition of recombinant human wild type GST-tagged LRRK2 (970 to 2527 residues) at 22 uM preincubated for 30 mins followed by fluorescein-LRRKtide substrate addition after 2 hrs by TR-FRET assay relative to control. For orientation: In TR-FRET formats the signal depends on donor and acceptor labels being close together.

The target is the same in series [5].
Description: Inhibition of recombinant human wild type GST-tagged LRRK2 (970 to 2527 residues) preincubated for 30 mins followed by fluorescein-LRRKtide substrate addition after 2 hrs by TR-FRET assay
Series [6] shares this target. The series can be described thus: Inhibition of recombinant human wild type GST-tagged LRRK2 (970 to 2527 residues) at 30 uM preincubated for 30 mins followed by fluorescein-LRRKtide substrate addition after 2 hrs by TR-FRET assay relative to control.
Series [7] relates to Leucine-rich repeat serine/threonine-protein kinase 2 (Homo sapiens), Q5S007 [G2019S]. The settings on record: at 40 µM.
Description: Inhibition of recombinant human LRRK2 (970 to 2527 residues) G2019S mutant expressed in baculovirus at 40 uM preincubated for 30 mins followed by fluorescein-LRRKtide substrate addition after 2 hrs by TR-FRET assay
Series [8] addresses T1, Leucine-rich repeat serine/threonine-protein kinase 2. As to the kind of experiment: Inhibition of recombinant human wild type GST-tagged LRRK2 (970 to 2527 residues) at 66.7 uM preincubated for 30 mins followed by fluorescein-LRRKtide substrate addition after 2 hrs by TR-FRET assay relative to control.
Series [9] can be described thus: Intrinsic clearance in human liver microsomes. It counts as ADME, microsome. The settings on record: read-out: CLH (converted). On the technique in general: Liver microsomes are a subcellular fraction often used to study metabolism.
The nature of series [10]: Intrinsic clearance in rat liver microsomes. Format: ADME, microsome. The settings on record: read-out: CLH (converted).
Series [11] in a line: Apparent permeability in MDCK cells. The settings on record: dog. Format: ADME, cell-based, Canis lupus familiaris.
The nature of series [12]: Aqueous solubility of the compound in pH 7.4. Format: physicochemical. The settings on record: aqueous medium.
Series [13] in a line: Efflux ratio of apparent permeability from basolateral to apical over apical to basolateral side in MDCK cells. It counts as ADME, cell-based, Canis lupus familiaris. The settings on record: dog.

Leucine-rich repeat serine/threonine-protein kinase 2 (Homo sapiens, UniProt Q5S007, G2019S), sequence (Q5S007 whole entry G2019S, the tested form may be a part): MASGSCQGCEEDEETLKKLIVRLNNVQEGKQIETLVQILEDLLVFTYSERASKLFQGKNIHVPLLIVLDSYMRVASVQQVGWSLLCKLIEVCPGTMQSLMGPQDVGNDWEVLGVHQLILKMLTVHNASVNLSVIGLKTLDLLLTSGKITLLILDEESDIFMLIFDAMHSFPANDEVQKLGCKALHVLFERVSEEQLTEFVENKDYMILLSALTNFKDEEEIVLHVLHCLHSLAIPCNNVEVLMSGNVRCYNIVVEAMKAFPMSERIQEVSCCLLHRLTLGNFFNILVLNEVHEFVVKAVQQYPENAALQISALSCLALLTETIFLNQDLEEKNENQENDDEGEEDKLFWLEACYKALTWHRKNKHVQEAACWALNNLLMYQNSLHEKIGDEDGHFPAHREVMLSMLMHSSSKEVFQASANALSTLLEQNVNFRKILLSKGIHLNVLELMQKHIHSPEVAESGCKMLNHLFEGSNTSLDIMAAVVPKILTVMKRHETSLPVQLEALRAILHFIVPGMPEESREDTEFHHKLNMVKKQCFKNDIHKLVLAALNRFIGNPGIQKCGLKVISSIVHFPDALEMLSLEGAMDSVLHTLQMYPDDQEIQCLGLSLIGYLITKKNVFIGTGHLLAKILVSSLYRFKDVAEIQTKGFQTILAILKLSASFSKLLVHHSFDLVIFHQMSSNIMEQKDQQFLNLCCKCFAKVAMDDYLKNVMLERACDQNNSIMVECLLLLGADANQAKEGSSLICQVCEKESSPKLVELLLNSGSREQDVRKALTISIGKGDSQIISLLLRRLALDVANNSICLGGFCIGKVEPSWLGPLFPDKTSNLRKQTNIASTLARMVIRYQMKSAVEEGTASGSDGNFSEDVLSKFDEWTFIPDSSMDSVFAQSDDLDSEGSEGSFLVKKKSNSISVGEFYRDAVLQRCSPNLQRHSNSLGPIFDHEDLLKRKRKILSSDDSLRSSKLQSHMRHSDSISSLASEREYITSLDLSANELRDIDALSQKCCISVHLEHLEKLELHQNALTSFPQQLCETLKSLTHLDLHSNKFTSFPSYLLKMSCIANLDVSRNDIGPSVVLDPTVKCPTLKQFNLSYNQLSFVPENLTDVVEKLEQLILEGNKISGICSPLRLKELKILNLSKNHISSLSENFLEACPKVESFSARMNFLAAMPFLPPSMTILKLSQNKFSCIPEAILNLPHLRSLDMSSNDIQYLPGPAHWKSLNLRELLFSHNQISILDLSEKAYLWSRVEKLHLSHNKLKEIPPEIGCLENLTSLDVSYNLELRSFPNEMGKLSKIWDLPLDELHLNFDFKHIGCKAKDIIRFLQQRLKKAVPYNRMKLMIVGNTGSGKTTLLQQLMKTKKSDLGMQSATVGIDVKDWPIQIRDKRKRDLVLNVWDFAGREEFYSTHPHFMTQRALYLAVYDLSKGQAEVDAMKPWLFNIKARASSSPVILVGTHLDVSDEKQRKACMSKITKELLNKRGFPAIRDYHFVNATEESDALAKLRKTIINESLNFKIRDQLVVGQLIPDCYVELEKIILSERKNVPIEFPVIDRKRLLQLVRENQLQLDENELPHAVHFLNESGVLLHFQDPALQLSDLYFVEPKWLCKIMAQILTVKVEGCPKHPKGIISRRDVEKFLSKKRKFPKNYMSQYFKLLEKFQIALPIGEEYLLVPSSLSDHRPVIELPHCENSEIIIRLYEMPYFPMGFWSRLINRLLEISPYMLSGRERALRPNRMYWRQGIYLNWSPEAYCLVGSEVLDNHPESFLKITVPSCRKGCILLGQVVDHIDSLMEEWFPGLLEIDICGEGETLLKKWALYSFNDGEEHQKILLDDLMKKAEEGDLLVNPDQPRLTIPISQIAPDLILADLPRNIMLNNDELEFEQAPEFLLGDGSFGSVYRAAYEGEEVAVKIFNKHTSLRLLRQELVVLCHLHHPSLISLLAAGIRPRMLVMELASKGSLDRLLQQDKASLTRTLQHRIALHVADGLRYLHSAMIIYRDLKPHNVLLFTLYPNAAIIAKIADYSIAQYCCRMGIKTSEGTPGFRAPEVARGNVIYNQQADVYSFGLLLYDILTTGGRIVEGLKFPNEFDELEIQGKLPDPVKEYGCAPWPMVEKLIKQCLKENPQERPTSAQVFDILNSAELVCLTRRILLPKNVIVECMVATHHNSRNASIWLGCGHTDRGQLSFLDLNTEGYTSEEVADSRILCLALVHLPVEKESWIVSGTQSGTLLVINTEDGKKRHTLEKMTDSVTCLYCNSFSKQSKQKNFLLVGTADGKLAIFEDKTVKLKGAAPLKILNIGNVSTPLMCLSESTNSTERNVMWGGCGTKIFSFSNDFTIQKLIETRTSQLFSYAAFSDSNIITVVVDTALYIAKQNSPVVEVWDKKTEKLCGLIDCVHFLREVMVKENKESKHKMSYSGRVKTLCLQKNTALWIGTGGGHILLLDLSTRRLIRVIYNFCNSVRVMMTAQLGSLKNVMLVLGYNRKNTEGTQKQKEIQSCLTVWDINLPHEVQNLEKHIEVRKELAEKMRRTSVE
T1 sequence (Q5S007 whole entry, the tested form may be a part): as the sequence (Q5S007 whole entry G2019S, the tested form may be a part) above, with S2019G counted along it
Leucine-rich repeat serine/threonine-protein kinase 2 (Homo sapiens), Q5S007 [G2019S], sequence (Q5S007 whole entry G2019S, the tested form may be a part): as the sequence (Q5S007 whole entry G2019S, the tested form may be a part) above

The inhibition is the drop in the measured response relative to a control, in per cent. For the compound `Cc1ccc(-c2cnc(N)c(-c3cnn(C)c3C)c2)cc1`, the figures for the inhibition in series [1] and in series [2] were 49% and 62%, respectively.
The pIC50 is the IC50 on a negative log10 scale, so that one unit is a factor of ten. A higher pIC50 goes with a small IC50. `Cn1cc(-c2cc(-c3ccc4[nH]ccc4c3)cnc2N)cn1` gave a pIC50 in series [3] of 4.89. Also, the inhibition in series [1] worked out at 75%.
`CCc1nnc(-c2cc(-c3ccc4[nH]ccc4c3)cnc2N)o1`: the pIC50 in [3] was 5.54. The inhibition in series [4] came to 77%.
With `Cc1ccc(-c2cnc(N)c(-c3nnc(C4CC4)o3)c2)cc1`, the pIC50 in series [3] was 5.66; in series [5], 5.64.
Taken in the same sequence, the figures for `Cc1ccc(-c2cnc(N)c(-c3cnc(C)o3)c2)cc1` were 4.96 and 4.62.
In turn, `Cn1cc(-c2cc(-c3ccc4c(ccn4C)c3)cnc2N)cn1` had a pIC50 in series [3] of 5.24. The inhibition in series [6] was found to be 64%.
On to `Cn1ccc(-c2cc(-c3ccc4[nH]ccc4c3)cnc2N)n1`, for which the figures for the inhibition in series [7] and in [1] were 65% and 48%, respectively.
Regarding `CCNc1nc(Nc2cc(F)c(C(=O)N3CCOCC3)cc2OC)ncc1C(F)(F)F`, the figures for the pIC50 in [3] and in [5] were 7.34 and 7.01, respectively.
Taken in the same sequence, the figures for `Nc1ncc(-c2ccc3[nH]ccc3c2)cc1-c1nnc(C2CC2)o1` were 5.80 and 5.89.
With `Cc1ccc(-c2cnc(N)c(-n3cc(C)nn3)c2)cc1`, in series [3], the pIC50 is 5.04. Besides, the inhibition in [6] turned out to be 70%.
`Cc1ccc(-c2cnc(N)c(-c3cn(C)cn3)c2)cc1`: in series [3], the negative logarithm of the IC50 (pIC50) is 4.24. The inhibition in series [1] was determined as 60%.
In [3], `Cc1ccc(-c2cnc(N)c(-c3cn[nH]c3)c2)cc1` had a pIC50 of 4.89. Also, in series [8], the inhibition was found to be 72%.
Consider `CCn1cc(-c2cc(-c3ccc(C)cc3)cnc2N)cn1`, for which the pIC50 in series [3] and in [5] was 4.92 in each case.
The compound `Cc1nnc(-c2cc(-c3ccc4[nH]ccc4c3)cnc2N)o1` showed a pIC50 in series [3] of 5.44.
What is called Papp is the rate of passage across a membrane or cell layer, normalised by area and donor concentration. Broadly, the solubility is the dissolved amount per volume that the medium holds. Higher therefore signals much dissolved substance. Usually efflux ratio stands for a quotient of directional permeabilities that is used to spot active efflux. Consider `Cc1ccc(-c2cnc(N)c(-c3cnn(C)c3)c2)cc1`, for which the pIC50 was 5.17 in [3] and 4.80 in series [5]. Further, the CLint scaled in series [9] was 6 L/h/kg; in series [10], 17 L/h/kg. In series [11], the Papp was 169 nm/s. The compound further showed a solubility in [12] of 0.011 mg/mL (≈ 41.6 µM). In addition, in [13], the efflux ratio is 0.55.
